Test results published in patent US9073880B2, “2-(2-phenylethenyl) 1,3-benzodiazepine derivatives useful for the treatment of cancer” (Yissum Research Development Company of the Hebrew …, priority 2010, dated 2015).
pIC50: −log10 of the molar value.

Columns and labels:
[1] = system: human multiple myeloma U266 cells; test: Cell proliferation, U266 (Example 4); format: cell-based; conditions: U-266, compound in 2-hydroxypropyl-β-cyclodextrin
Description: Human ovary cancer A2780 cells lines were seeded at a density of 5000 cells/well, human melanoma A375 cells were plated at a density of 2,500 cells/well, human colon carcinoma HCT15 cells were plated at a density of 3,000 cells/well, human prostate carcinoma PC3 cells were plated at a density of 1,500 cells/well, human breast carcinoma MCF7 cells were plated at a density of 5,000 cells/well, human breast carcinoma MDA MB 468 cells were plated at a density of 6,000 cells/well, human myeloma U266, RPMI8226 and CAG cells were plated at a density of 10,000 cells/well. All cells were plated in 96-well plates in 90 μl growth medium containing 10% FCS, 100 units/ml penicillin and 100 μg/ml streptomycin. Compound 3 was added a day later in […] of 1% DMSO in DDW to obtain final concentrations of 0, 0.1, 0.3, 1, 3, and 10 μM. The final concentration of DMSO (0.1% DMSO) was kept constant in all samples. […] The optical density values were read at 630 nm in ELISA plate reader. Non-adhered cells were exposed to WST-1 reagent for 5 hours following 72 hours treatment with the inhibitors, and optical density values were read at 630 nm in ELISA plate reader. The data was analyzed in Microsoft Excel, using the vehicle control as 100% proliferation. […]

IRS1 and IRS2 = IRS1 and IRS2 serine phosphorylation in A375 cells (western blot); format: cell-based, human; conditions: melanoma A375 cells treated 4 hr, 1 and 3 μM; FIG. 4
Description: Tyrosine autophosphorylation of the β-subunit of IGF-1R as well as downstream signaling induced by IGF-1R were assayed in human breast cancer MCF7 cells and in melanoma A375 cells. Cells were seeded in 6-well plates (250,000 A375 cells/well and 300,000 MCF7 cells/well) and 24 hours later medium was replaced by serum-free medium (RPMI supplemented with 100 units/ml penicillin and 100 μg/ml streptomycin). MCF7 cells were exposed for 48 hr to compound 3 at 10 μM concentration, and then stimulated for 5 minutes with 50 ng/ml IGF-1, washed twice with PBS and lysed by boiling sample buffer (10% glycerol, 50 mM Tris-HCl, pH 6.8, 3% SDS, and 5% (3-mercaptoethanol). Equal amounts of protein per lane were separated by 8% SDS-PAGE and transferred to a nitrocellulose membrane (Sartorius AG). Phosphorylated proteins were immunoblotted with anti-phosphoIGF-1R (pIGF-1R), anti-phosphotyrosine-IRS1 (pY-IRS I) and anti-phospho(T308)Akt (pPKB) antibodies. Detection was performed with horseradish peroxidase-conjugated secondary antibody using the ECL system. […]
In addition, lysates of human melanoma A375 cells were prepared from cells exposed to compound 3 at 1 and 3 μM concentrations in serum-free medium. […] In this experiment the phosphorylated form of IRS1 on Serine-636/639 and the levels of IRS2 were detected as well.

[2] = system: human ovary A2780 tumor cells; test: Survival of nude mice bearing intraperitoneal human ovarian A2780 tumors; format: in vivo; conditions: for median survival time: IV, control 28 days
Description: In order to determine the effect of the compounds of the present invention on the growth and spread of tumors in-vivo, the compounds were administered to nude mice bearing human ovarian cancer. […] A model of peritoneal carcinomatosis formation, involving intraperitoneal administration of human ovary A2780 tumor cells, was used.
Two million human ovarian A2780 cells were injected to the peritoneum of 4-5 weeks old female nude mice. A week later, treatments with compound 3 or vehicle were initiated. Compound 3 was administered IV, daily at a dose of 3 mg/kg or weekly at a dose of 12 mg/kg for the time periods indicated in FIG. 7. The control group was weekly administered (IV) with the vehicle (20% 2-hydroxypropyl-b-cyclodextrin). Each group included 10 mice.

PKB = test: IGF1-induced PKB activation in MCF7 cells (western blot); format: cell-based, human; conditions: 10 μM, 48 hr, 50 ng/ml IGF-1 5 minutes, FIG. 3
Description: Tyrosine autophosphorylation of the β-subunit of IGF-1R as well as downstream signaling induced by IGF-1R were assayed in human breast cancer MCF7 cells and in melanoma A375 cells. Cells were seeded in 6-well plates (250,000 A375 cells/well and 300,000 MCF7 cells/well) and 24 hours later medium was replaced by serum-free medium (RPMI supplemented with 100 units/ml penicillin and 100 μg/ml streptomycin). MCF7 cells were exposed for 48 hr to compound 3 at 10 μM concentration, and then stimulated for 5 minutes with 50 ng/ml IGF-1, washed twice with PBS and lysed by boiling sample buffer (10% glycerol, 50 mM Tris-HCl, pH 6.8, 3% SDS, and 5% (3-mercaptoethanol). Equal amounts of protein per lane were separated by 8% SDS-PAGE and transferred to a nitrocellulose membrane (Sartorius AG). Phosphorylated proteins were immunoblotted with anti-phosphoIGF-1R (pIGF-1R), anti-phosphotyrosine-IRS1 (pY-IRS I) and anti-phospho(T308)Akt (pPKB) antibodies. Detection was performed with horseradish peroxidase-conjugated secondary antibody using the ECL system. Blots were then stripped of antibodies, blocked with TBST with 5% low fat milk and re-probed with antibodies detecting both the phosphorylated and the non-phosphorylated corresponding proteins e.g. IGF-1Rβ, IRS1 and PKB.

With `O=c1c(O)cc2cnc(/C=C/c3cc(O)c(O)c(Br)c3)sc-2c1O` [Compound 3] the pIC50 [1] was 6.15, the “IRS1 and IRS2 serine phosphorylation” value (IRS1 and IRS2) was “induction of IRS1 and IRS2 serine phosphorylation” and the “median survival time compared to Cisplatin and Sunitinib” value ([2]; 50 mg/kg daily IV vs Cisplatin 3 mg/kg ip 3 times a week for two weeks and Sunitinib 40 mg/kg daily PO, data not shown) was “preferable median survival time”. For the same molecule, the median survival time ([2]; daily, 3 mg/kg, FIG. 7) was “over 81 days”, the median survival time ([2]; weekly, 12 mg/kg, FIG. 7) was “over 81 days” and the “survival compared to control mice” value ([2]; intravenous treatment, 3 mg/kg daily or 12 mg/kg weekly, FIG. 7) was “dramatically increased survival”. The “IGF1-induced activation of the downstream signaling component PKB” value (PKB) was “significantly inhibited”.
